The text below walks through data of patent US10526292B2 (Parion Sciences, Inc., priority 2012, dated 2020).

The subject of one data set is rabbits. As to conditions: topical addition; cited from earlier work.
Data set [1] in a line: Confocal microscopy assay of amiloride congener transport. Type of data set: in vitro ADME. As to conditions: applied to apical (epithelial) surface of mouse corneas, one hour at 37 C. The text has this:
Serial x-y images were obtained one hour post-drug addition by confocal microsopy.

The subject of a further data set is rats. As to conditions: topical addition; cited from earlier work.
In a further data set the test system is ExLac rats. Description: Tear volume in rat model of dry eye disease (lacrimal gland excision, ExLac Model). Type of data set: in vivo, Sprague Dawley rats. As to conditions: 5 μl test article solution per eye, tear volume by ZoneQuick thread over 6 h. The method, then:
The effects of compounds on tear volume was assessed in a rat model of dry eye disease in which Sprague Dawley rats undergo surgical lacrimal gland excision (ExLac Model) to reduce normal tear volume. The lacrimal excision reduces normal tear volume by ˜50% (Table 2).
Both the ipsilateral and contralateral eyes were dosed with 5 μl of test article solution. Tear production was measured using the ZoneQuick cotton thread with impregnated phenol red dye. The folded end of the thread was held in the lateral-ventral conjunctival cul-de-sac for 10 seconds. The length of tear wicking onto the thread was determined by measuring the length of the thread that changes color from yellow to red. Use of a stereomicroscope was assist in the accurate measurement (recorded in millimeters) of the wicking/color change. Tear volume was assessed pre-dose, and 15, 30, 60, 120, and 360 minute post-dose. For reference, the effect of a saline vehicle is shown for ExLac rats and normal (no lacrimal excision surgery) rats.

Data set [2] can be described thus: In vitro drug metabolism: hepatocyte stability, dog. Type of data set: in vitro ADME. The settings on record: dog hepatocyte suspension, 10 μM, 37° C., up to six hours. The method, then:
(§1) The metabolic stability of 9 and 15 was assessed in plasma (rat, rabbit, dog and human) and hepatocytes (rat and dog). Compounds were added either directly to plasma or to hepatocyte suspensions at a final concentration of 2.5 or 10 μM, respectively, and incubated at 37° C. for up to six hours. Aliquots were removed at various time points and quenched. The amount of parent compound was quantified via UPLC-fluorescence analysis. The amount of parent compound remaining was calculated based on the total peak area at the time of sampling divided by the total peak area at initiation.

A short description of data set [3]: In vitro drug metabolism: summary in words for plasma and hepatocytes among the species evaluated. As to conditions: plasma (rat, rabbit, dog, human) and hepatocytes (rat, dog). Type of data set: in vitro ADME. The method, then:
as §1

Data set [4] can be described thus: In vitro drug metabolism: plasma stability, human. Format: in vitro ADME. The settings on record: 2.5 μM, 37° C., up to six hours. On the procedure:
as §1

Data set [5] in a line: In vitro drug metabolism: plasma stability, dog. Format: in vitro ADME. The settings on record: 2.5 μM, 37° C., up to six hours. The method, then: as §1
Data set [6] can be described thus: In vitro drug metabolism: plasma stability, rabbit. Type of data set: in vitro ADME. As to conditions: 2.5 μM, 37° C., up to six hours. The method, then: as §1
Data set [7] can be described thus: In vitro drug metabolism: plasma stability, rat. Format: in vitro ADME. The settings on record: 2.5 μM, 37° C., up to six hours. The method, then: as §1
A short description of data set [8]: In vitro drug metabolism: hepatocyte stability, rat. Type of data set: in vitro ADME. The settings on record: rat hepatocyte suspension, 10 μM, 37° C., up to six hours. On the procedure:
as §1

For another data set, the target named is Muc5B (Homo sapiens, UniProt Q9HC84). As to conditions: in vitro; cited from earlier work.

Each structure is given as a SMILES string.

In the case of `N=C(N)NC(=O)c1nc(Cl)c(N)nc1N` [Amiloride, amiloride], in the data set on rabbits, the “Change of tear volume” value is “approximate doubling of tear volume” and the “Time tear volume remained elevated post-administration” value is more than 60 min. Also, in data set [1], the “Penetration of the cornea (confocal x-z image, FIG. 16)” value is reported as “can fully penetrate the cornea”. Moreover, in the data set on rats, the “Change of tear volume” value was “approximate doubling of tear volume” and the “Time tear volume remained elevated post-administration” value is more than 60 min. Further, the “6 h Ocular Hydration (AUC0-6)” value with ExLac rats is on record as 30.4.

Consider `N=C(N)NCCCC[C@@H](N)C(=O)NCCCN(CCCNC(=O)[C@H](N)CCCCNC(=N)N)CCOc1ccc(CCCCNC(=N)NC(=O)c2nc(Cl)c(N)nc2N)cc1` [Compound 9, (2R,2′R)—N,N′-(3,3′-(2-(4-(4-(3-(3,5-diamino-6-chloropyrazine-2-carbonyl)guanidino)butyl)phenoxy)ethylazanediyl)bis(propane-3,1-diyl))bis(2-amino-6-guanidinohexanamide)], for which the “Hepatocyte Stability (amount of parent compound remaining)” value in data set [2] is 94%; in data set [8] it was 100%. Moreover, the “Stability towards metabolic hydrolysis in plasma and hepatocytes” value in data set [3] was “stable towards metabolic hydrolysis”. The “Penetration of the cornea (confocal x-z image, FIG. 16)” value in [1] is reported as “remains associated with the apical (epithelial) surface”. Further, the “Plasma Stability (amount of parent compound remaining)” value in [4] was 101%; in data set [5] it was 103%; in data set [6] it was 89%; in [7], 87%. In addition, the “6 h Ocular Hydration (AUC0-6)” value with ExLac rats is 50.2.

Take `N=C(N)NCCCC[C@H](N)C(=O)NCCCN(CCCNC(=O)[C@@H](N)CCCCNC(=N)N)CCOc1ccc(CCCCNC(=N)NC(=O)c2nc(Cl)c(N)nc2N)cc1` [Compound 15, (2S,2′S)—N,N′-(3,3′-(2-(4-(4-(3-(3,5-diamino-6-chloropyrazine-2-carbonyl)guanidino)butyl)phenoxy)ethylazanediyl)bis(propane-3,1-diyl))bis(2-amino-6-guanidinohexanamide)]: the “Hepatocyte Stability (amount of parent compound remaining)” value in data set [2] came to 19%; in [8], 14%. In addition, the “Stability towards metabolic hydrolysis in plasma and hepatocytes” value in [3] is reported as “rapidly metabolized”. In addition, the “Plasma Stability (amount of parent compound remaining)” value in [4] is 7.6%; in data set [5], 18%; in data set [6], 8.7%; in data set [7], 10%. For the same molecule, the “6 h Ocular Hydration (AUC0-6)” value with ExLac rats turned out to be 50.2.

Consider `CC(=O)N[C@@H](CS)C(=O)O` [NAC, N-acetyl cysteine], for which the “Concentration required to fully reduce Muc5B” value at Muc5B was 200 mM.
